Measurements reported in patent publication US20050002943A1, “Amp-kinase agonists or adenosine pro-drugs as immuno-stimulating agents” (priority 2001, published 2005).
Entries after “also recorded” stand apart in the source; their conditions may differ. One block for each compound: values may come before it.

Legend:
BALB/c mice [1] = experiment: Primary antibody response to Ars-KLH with AICAR or 6-MPR, serum ELISA (Example 10); format: in vivo; conditions: 3 mg i.p. with Ars-KLH 100 μg; for antigen-specific IgG antibodies: vs antigen without adjuvant, day 19
Description: BALB/c micereceived an intraperitoneal injection of Ars-KLH (100 μg), Ars-KLH+AICAR (3 mg) or Ars-KLH+6-MPR (3 mg). 19 days after Immunization, mice were bled and serum levels of antigen specific antibodies were determined by ELISA according to standard procedure using isotype-specific rat Mab.

BALB/c mice [2] = experiment: Primary and secondary antibody response to Ars-KLH with oligomycin, serum ELISA (Example 11); format: in vivo; conditions: oligomycin 10 μg i.p. with Ars-KLH 50 μg, vs antigen alone; primary (day 21) and secondary (14 days after boost)
Description: BALB/C mice were injected intraperitoneally with Ars-KLH (50 μg) mixed with saline, AICA-riboside (3 mg) or oligomycin (10 μg). 21 days after immunization, mice were bled and serum levels of Ars-specific antibodies (primary response) were determined by ELISA according to standard procedure using isotype-specific rat mAb. […] On day 22, all mice received a second injection of Ars-KLH (50 μg) intrapertioneally. Mice were bled 14 days after the antigen boost and serum levels of Ars-KLH-specific antibodies (secondary response) were determined by ELISA.

BALB/c mice [3] = experiment: Primary, secondary and day 120 Ars-specific antibody response to Ars-KLH, serum ELISA (Examples 2 and 3); format: in vivo
Description: Three groups of BALB/c mice received an intraperitoneal injection of Ars-KLH (100 μg), Ars-KLH (100 μg)+AICA-riboside (10 mg) or Ars-KLH (100 μg)+Alum (50 μl). 21 days after immunization, mice were bled and serum levels of antigen (Ars)-specific antibodies were determined by ELISA as previously described (primary response). On day 22, all mice received a second injection (boost) of Ars-KLH (100 μg) i.p. Mice were bled 8 days after the antigen boost and serum levels of Ars-specific antibodies were determined by ELISA (secondary response). The results are illustrated in FIG. 2.
Mice immunized according to the protocol described in example 2 were bled 120 days after the first encounter with the antigen (in the presence or absence of adjuvant) and serum levels of antigen specific antibodies were determined by ELISA as described previously (secondary response, day 120).

murine lymphocytes = experiment: In vitro response of murine lymphocytes, cytokine secretion; format: cell-based
Description: (§1) Although the precise mechanism(s) by which AICA-riboside augments antibody responses in vivo is presently unknown, some points are noteworthy in light of the present invention. […] A qualitative change of the humoral response is also observed, as immunoglobulins of the IgG isotype (generally detected only during the secondary response) are already detected during the primary response in animals treated with antigen/AICA-riboside formulations. […] The immuno-potentiating effect of AICA-riboside in combination with said antigen is as good when the compounds are administered mixed together (co-administered) as when administered separately or sequentially. […] The use of this agent therefore probably precludes local pain after injection.

BALB/c mice [4] = experiment: Ars-KLH antibody response, timing of AICA-riboside injection relative to antigen (Example 6); format: in vivo; conditions: AICA-riboside 10 mg i.p. at d-1, d0 or d+1, separate site from Ars-KLH 100 μg
Description: BALB/c mice received an intraperitoneal injection of AICA-riboside (10 mg) one day before (d-1), the same day (d0) or the day after (d+1) the intraperitoneal injection (in a separate site) of Ars-KLH (100 μg). A fourth group (n.t.) received an intraperitoneal injection of phosphate buffer solution the day of the antigen administration. 20 days after immunization, mice were bled and serum levels of Ars-specific antibodies were determined by ELISA according to standard procedures using isotype-specific reagents (primary response). On day 21, all mice received a boost of Ars-KLH (50 μg) intraperitoneally. Mice were bled 14 days after the antigen boost and serum levels of Ars-specific antibodies were determined by ELISA as described previously (secondary response).

BALB/c mice [5] = experiment: Primary and secondary antibody response to human gamma globulins (HGG), serum ELISA (Example 4); format: in vivo; conditions: HGG 15 μg + AICA-riboside 10 mg i.p., boost day 25
Description: BALB/c mice received an intraperitoneal injection of HGG (15 μg) or HGG (15 μg)+AICA-riboside (10 mg). 16 days after immunization, mice were bled and serum levels of HGG-specific antibodies were determined by ELISA as described. On day 25, the two groups of mice received respectively a boost of HGG (15 μg) and of HGG (15 μg)+AICA-riboside (10 mg) intraperitoneally. Mice were bled 10 days after the boost and serum levels of HGG-specific antibodies were determined by ELISA as described previously (secondary response). The results are illustrated in FIG. 4.

BALB/c mice [6] = experiment: NP-KLH antibody response in anti-CD4 treated mice (Example 7); format: in vivo; conditions: anti-CD4 (GK1.5) treated mice; NP-KLH 100 μg + AICA-riboside 10 mg i.p.; day 10
Description: BALB/c mice, were treated or not with anti-CD4 antibodies (two intraperitoneal injections of 200 μl of the depleting rat anti-mouse anti-CD4 antibody, clone GK1.5, on days 0 and 5). On day 2 mice were injected intraperitoneally with NP-KLH (100 μg) or NP-KLH (100 μg)+AICA-riboside (10 mg). 10 days after immunization, mice were bled and serum levels of NP-specific antibodies were determined by ELISA according to standard procedures using isotype specific reagents.

humans = conditions: all dose levels (10 to 100 mg/kg); cited from earlier work
BALB/c mice [7] = experiment: Antigen (NP)-specific antibody response to NP-KLH, serum ELISA (Example 1); format: in vivo
Description: BALB/c mice were injected intraperitoneally with 200 μl of saline, aqueous solution (phosphate buffer solution), or with 200 μl of phosphate buffer solution containing AICA-riboside (10 mg), NP-KLH (100 μg) or NP-KLH (100 μg)+AICA-riboside (10 mg). Height days after immunization, mice were bled and serum levels of antigen (NP)-specific antibodies were determined by ELISA according to standard procedure using isotype-specific reagents.

BALB/c mice [8] = experiment: Size of draining lymph nodes after footpad injection (Example 8); format: in vivo; conditions: rear footpad injection with NP-KLH 25 μg; AICA-riboside 2.5 mg or Alum 12.5 μg; 8 days
Description: BALB/c mice were injected with NP-KLH (25 μg), NP-KLH (25 μg)+AICA-riboside (2.5 mg) or NP-KLH (25 μg)+Alum (12.5 μg) in the two rear footpads. 8 days after injection, mice were sacrificed and their posterior lymph nodes were collected and immediately analyzed for size.

mice = experiment: Serum antibody response in mice to protein antigens mixed with AICA-riboside (general studies); format: in vivo
Description: as §1

BALB/c mice [9] = experiment: Ars-KLH antibody response over a range of AICA-riboside doses (Example 5); format: in vivo; conditions: AICA-riboside 3 to 0.3 mg i.p. with Ars-KLH 100 μg; primary and secondary response
Description: BALB/c mice received an intraperitoneal injection of Ars-KLH (100 μg) or Ars-KLH (100 μg)+AICA-riboside at concentrations ranging from 3 to 0.3 mg. 21 days after immunization, mice were bled and serum levels of antigen (Ars)-specific antibodies were determined by ELISA according to standard procedure using isotype-specific reagents (primary response). On day 22, all mice received a boost of Ars-KLH (50 μg) intraperitoneally. Mice were bled 14 days after the antigen boost and serum levels of Ars-specific antibodies were determined by ELISA as described previously (secondary response). The results are illustrated in FIG. 5.

BALB/c mice [10] = experiment: Local inflammatory response at injection site, GR-1 immunohistochemistry (Example 9); format: in vivo; conditions: rear footpad injection; AICA-riboside 2.5 mg or alum 12.5 μg; 8 or 24 hours
Description: BALB/c mice were injected with saline (50 μl PBS), AICA-boside (2.5 mg) or alum (12.5 μg) in the two rear footpads. 8 or 24 hours after treatment mice were sacrificed, and thin sections of the tissues surrounding the injection site (marked by a circle) were analyzed by immunohistochemistry. Inflammatory cells (mostly granulocytes and monocytes) were identified using an antibody directed to the murine GR-1 molecule.

Structure (SMILES): OC[C@H]1O[C@@H](n2cnc3c(S)ncnc32)[C@H](O)[C@@H]1O [6-MPR, 6-mercaptopurine riboside]
- antigen-specific IgG antibodies (BALB/c mice [1]): increased levels of antigen-specific IgG antibodies

Structure (SMILES): CC[C@H]1/C=C/C=C/C[C@@H](C)[C@H](O)[C@@](C)(O)C(=O)[C@@H](C)[C@H](O)[C@@H](C)C(=O)[C@@H](C)[C@H](O)[C@@H](C)/C=C/C(=O)O[C@@H]2[C@H](C)[C@H](CC1)O[C@]1(CC[C@H](C)[C@H](C[C@@H](C)O)O1)[C@H]2C [oligomycin]
- antigen-specific IgG antibodies (BALB/c mice [2]): increased levels of antigen-specific IgG antibodies; also recorded: increases antibody responses

- swelling of the lymph node draining the injection site (BALB/c mice [8]): does not induce the swelling
Structure (SMILES): NC(=O)c1ncn([C@@H]2O[C@H](CO)[C@@H](O)[C@H]2O)c1N [AICA-riboside, 5-aminoimidazole-4-carboxamide riboside]
- antigen-specific IgM response (BALB/c mice [3]; 10 mg i.p. with Ars-KLH 100 μg, vs antigen without adjuvant): unaffected
- antigen-specific IgG antibodies (BALB/c mice [3]; 10 mg i.p. with Ars-KLH 100 μg, vs antigen without adjuvant, primary (day 21) and secondary (8 days after boost) response): increased levels of antigen-specific IgG antibodies
- immuno-stimulatory properties compared with Alum (BALB/c mice [3]; AICA-riboside 10 mg vs Alum 50 μl, each with Ars-KLH 100 μg i.p.): comparable to the Alum adjuvant
- antigen-specific response, day 120 (BALB/c mice [3]; bled 120 days after first encounter with antigen, vs antigen alone): long-lasting increase in antigen-specific response
- secretion of cytokines (murine lymphocytes; in response to bacterial mitogens, lectins or protein antigens): did not affect the secretion of cytokines
- enhancing effect on in vitro response of murine lymphocytes (murine lymphocytes; in vitro): no enhancing effect
- adjuvant effect depending on time of injection (BALB/c mice [4]): only manifest when AICA-riboside is injected at the same moment with the antigen
- antibody response to protein antigen HGG (BALB/c mice [5]): augments the antibody response
- antigen-specific antibody responses in the absence of CD4-expressing T cells (BALB/c mice [6]): does not augment the antigen-specific antibody responses
- tolerability in humans (humans): well tolerated
- antigen (NP)-specific antibody response (BALB/c mice [7]; AICA-riboside 10 mg co-administered i.p. with NP-KLH 100 μg, vs antigen alone, bled Height days after immunization): increased antigen-specific antibody response
- antigen (NP)-specific antibody response (BALB/c mice [7]; AICA-riboside 10 mg i.p. alone, without antigen): does not lead to an increased, antigen-specific antibody response
- local inflammatory response following injection (mice; injection into mice): no local inflammatory response was observed
- boost of serum antibody response above unadjuvanted antigens (mice; mixed in aqueous solutions with protein antigens, mice): five to ten folds
- adjuvant activity over dose range (BALB/c mice [9]): can act as an adjuvant over a wide range of doses
- GR-1-expressing inflammatory cell recruitment / cellular infiltrates (BALB/c mice [10]): minimal GR-1-expressing cells recruitment to sites distant from the injection site
- tissue necrosis at injection site (BALB/c mice [10]): no tissue necrosis or abnormality
- antigen-specific IgG antibodies (BALB/c mice [1]): increased levels of antigen-specific IgG antibodies
- Ars specific antibodies concentrations (BALB/c mice [1]; serum 19 days after immunization, Ars-KLH+saline control 0.04): 1.607 ± 0.521 µg/mL
